Key:
MCF-7 cells = experiment: Clonogenic assay in agar after monolayer culture; type: cell-based, human; settings: MCF-7, 7 days monolayer then 14 days agar
Procedure: FIG. 3 is a graphical representation showing clonogenicity of MCF-7M cells. Following suspension culture MCF-7M cell viability was measured by agar culture. Cells were plated in agar with the indicated concentrations of each of the growth factors. After 14 days culture colonies of cells were counted. Cell numbers reported here are the results of 3 experiments, each performed in triplicate, and are expressed according to the number of cells that went into suspension culture.
FIG. 17 is a graphical representation showing clonogenicity of MCF-7 cells after 1 week in suspension culture. Following suspension culture clonogenicity of MCF-7 cells was assayed in agar culture. Cells were plated in agar with the indicated growth factor and maintained at 37° C0 in a humidified incubator with 5% CO2 in air. After 14 days colonies of cells were counted. Results are from 9 experiments using IL-6, LIF and OSM, and 5 experiments using CNTF and IL-11. Each experiment was performed in triplicate, and colony numbers are expressed as a percentage of untreated controls.
Clonogenic potential of cells following monolayer culture was assessed in a semi-solid culture medium. Cells were cultured in triplicate in 35 mm Petri dishes containing 1 ml Iscove's modified Dulbecco's medium (IMDM) supplemented with 25% (v/v) (v/v) BCS, 0.3% (w/v) agar with final concentration of growth factor as outlined above, and with 200 cells per ml for control cultures Cultures were maintained at 37° C. in a humidified incubator with 5% (v/v) CO2 in air. After 14 days, colonies were enumerated using a dissecting microscope. A colony was defined as a clone of greater than 40 cells. All cultures were performed in triplicate.

[1] = test system: four breast cancer cell lines; experiment: Proliferation of four breast cancer cell lines in monolayer culture (summary); type: cell-based, human
Procedure: Proliferation of the cell lines was measured in monolayer culture in 24 well Costar cluster plates. Cells were plated at an initial density of 10 000 cells/ml and cultured in 500 μl RPMI-1640 supplemented with 10% (v/v) (v/v) BCS and with each growth factor as indicated (LIF, 1000 U/ml; IL-6, 100 ng/ml; OSM, 10 ng/ml; CNTF, 10 ng/ml; IL-11, 100 ng/ml). These concentrations are maximally active in other systems (Nandurkar et al., 1996; Hilton et al., 1994; Zhang et al., 1994; Tanigawa et al., 1995). After 7 or 10 days at 37° C. in a fully humidified atmosphere containing 10% (v/v) CO2 in air, cells were trypsinised and counted using a haemocytometer and an inverted microscope. Cell viability was assessed using eosin exclusion. Results were expressed as a percentage of the corresponding untreated control value for that experiment.
Experiments were performed to determine whether these morphological changes were associated with alterations in cell growth. The proliferation of four breast cancer cell lines was examined in monolayer cultures containing either IL-6, LIF, OSM, CNTF or IL-11.

MDA-MB-231 cell line = experiment: Receptor binding of radioiodinated ligand to MDA-MB-231 cells, Scatchard analysis; set-up: species or system human; settings: for specific binding(cpm)/10^6 cells: MDA-MB-231, 125I-ligand, room temperature 60 min
Procedure: FIG. 20 is a graphical representation showing Scatchard analyses of the saturation isotherms of LIF and OSM binding to breast cancer cell lines. Cells were incubated with various concentrations of labelled or unlabelled ligand in the presence or absence of a 10-100 fold excess of unlabelled ligand. After 18 hr on ice, bound and free ligand were separated by centrifugation through bovine calf serum. Bound and free ^125I-ligand was quantitated in a γ-counter and the data was depicted as a Scatchard transformation. Data was normalised for cell number and is shown as binding to 10^6 cells. A) Saturation isotherm of LIF binding to the MCF-7 cell line. […] B) Saturation isotherm of OSM binding to the MDA-MB-231 cell line.
(§1) Receptor binding assays were performed using radioiodinated LIF (^125I-LIF) and OSM (^125I-OSM). The radioiodination of LIF and OSM and binding assays were essentially performed as previously described (Hilton et al., 1991; Hilton and Nicola, 1992). Briefly, 50 μl aliquots containing 1×10^7 cells, suspended in RPMI-1640 medium containing 10% (v/v) BCS, were placed in Falcon tubes with 40 μl of the respective radioiodinated ligand at 1×10^5 cpm per 40 μl, with or without greater than a 40-fold excess of unlabelled ligand. Incubation was carried out at room temperature for 60 min and cells were resuspended and layered over 180 μl of (v/v) BCS. Cell associated and free radioiodinated ligand were separated by centrifugation. The pellet and supernatant were subsequently counted in a γ-counter. Specific binding was estimated by subtraction of non specific binding from binding with ^125I-ligand (total binding). Number of cell surface receptors and dissociation constant were calculated by Scatchard analysis.

T47D = experiment: Receptor binding of radioiodinated ligand to T-47D cells; set-up: species or system human; settings: 125I-ligand, room temperature 60 min
Procedure: as §1

Substance | effect on colony formation / clonogenic potential (in words) (MCF-7 cells) | cell lines with significant inhibition of cellular proliferation [1] | specific binding(cpm)/10^6 cells (MDA-MB-231 cell line) | specific binding(cpm)/10^6 cells (T47D) | Kd (MDA-MB-231 cell line; MDA-MB-231, Scatchard analysis, read-out: dissociation constant) [pM]
Leukemia Inhibitory Factor [LIF] | significant reduction of colony formation | ¼ | 450 +/− 120 cpm | 380 +/− 10 cpm | 
oncostatin M [OSM] | significant reduction of colony formation | ¾ | 2980 +/− 460 cpm | 1400 +/− 20 cpm | 92

From patent US20020106347A1, “Cytokines and their use in treatment and/or prophylaxis of breast cancer” (priority 1995, published 2002)
